Several values for one entry are separate records, joined by “and”; a condition that tells them apart may be missing. Equal entries are not always repeated. Where two headings read alike, the source gives them in different places.
Experiments:
[1] = test system: Helicoverpa armigera (Hübner); assay: Insecticidal activity against Helicoverpa armigera (Hübner); type: in vivo; settings: 100 μg/mL; for pest or weed control at 100 µg/mL: Helicoverpa armigera, read-out: insecticidal activity, Helicoverpa armigera (Hübner)
Caenorhabditis elegans = assay: Insecticidal activity against Caenorhabditis elegans; type: in vivo; settings: Caenorhabditis elegans, 100 μg/mL; read-out: insecticidal activity, Caenorhabditis elegans
Rhizoctonia cerealis = assay: Fungicidal activity, fungicide growth rate method, RC; type: cell-based; settings: 50 μg/mL; for inhibition at 50 µg/mL: Ceratobasidium cereale, read-out: fungicidal activity (growth inhibition rate), RC
Alternaria solani = assay: Fungicidal activity, fungicide growth rate method, AS; type: cell-based; settings: 50 μg/mL; for inhibition at 50 µg/mL: Alternaria solani, read-out: fungicidal activity (growth inhibition rate), AS
Botrytis cinerea = assay: Fungicidal activity, fungicide growth rate method, BC; type: cell-based; settings: 50 μg/mL; for inhibition at 50 µg/mL: Botrytis cinerea, read-out: fungicidal activity (growth inhibition rate), BC
[2] = test system: Phytophthora infestans (Mont.) de Bary; assay: microbe, parasite or virus in culture; type: cell-based; settings: for inhibition at 50 µg/mL: Phytophthora infestans, read-out: fungicidal activity (growth inhibition rate), PI, 50 μg/mL
Pellicularia sasakii = assay: Fungicidal activity, fungicide growth rate method, PS; type: cell-based; settings: 50 μg/mL; for inhibition at 50 µg/mL: read-out: fungicidal activity (growth inhibition rate), PS
Ostrinia furnacalis = assay: Insecticidal activity against Ostrinia furnacalis; type: in vivo; settings: 100 μg/mL; for pest or weed control at 100 µg/mL: Ostrinia furnacalis, read-out: insecticidal activity, Ostrinia furnacalis
[3] = test system: Mythimna separate (Walker); assay: Insecticidal activity against Mythimna separate (Walker); type: in vivo; settings: 100 μg/mL; for pest or weed control at 100 µg/mL: Mythimna, read-out: insecticidal activity, Mythimna separate (Walker)
Sclerotinia sclerotiorum = assay: Fungicidal activity, fungicide growth rate method, SS; type: cell-based; settings: 50 μg/mL; for inhibition at 50 µg/mL: Sclerotinia sclerotiorum
wheat Gibberella zeae = assay: microbe, parasite or virus in culture; type: cell-based; settings: for inhibition at 50 µg/mL: Fusarium graminearum, read-out: fungicidal activity (growth inhibition rate), GZ, 50 μg/mL
[4] = test system: Apis mellifera ligustica Spin; settings: for Death number after 24 h / Death number after 48 h: per replicate of 10 bees
Physalospora piricola = assay: Fungicidal activity, fungicide growth rate method, PP; type: cell-based; settings: 50 μg/mL
Cercospora arachidicola = assay: Fungicidal activity, fungicide growth rate method, CA; type: cell-based; settings: 50 μg/mL; for inhibition at 50 µg/mL: Mycosphaerella arachidis, read-out: fungicidal activity (growth inhibition rate), CA

Molecule | pest or weed control at 100 µg/mL [1] [%] | pest or weed control at 100 µg/mL (Caenorhabditis elegans) [%] | inhibition at 50 µg/mL (Rhizoctonia cerealis) [%] | inhibition at 50 µg/mL (Alternaria solani) [%] | inhibition at 50 µg/mL (Botrytis cinerea) [%] | inhibition at 50 µg/mL [2] [%] | inhibition at 50 µg/mL (Pellicularia sasakii) [%] | pest or weed control at 100 µg/mL (Ostrinia furnacalis) [%] | pest or weed control at 100 µg/mL [3] [%] | inhibition at 50 µg/mL (Sclerotinia sclerotiorum) [%] | inhibition at 50 µg/mL (wheat Gibberella zeae) [%] | other results
CC(C)(C)OO[C@@H]1CC(=O)[C@@]2(O)CC=CC[C@H]12 [Zyj06-92-2] | 10 | 20 | > 70 | > 60 | 30 | 15 | 41 | 10 | 20 | 38 |  | 
C=CC[C@@H]1C[C@@]2(O)C[C@@H](CC=C)[C@H]3CC=CC[C@@]32O1 [Zyj07-98] | 0 | 25 | > 70 | > 60 | > 50 | 17 | 27 |  | 0 | > 50 | > 50 | Death rate after 48 h (%) ([4]; dosage 8.47 μg a.i./bee): 0%; Death number after 24 h ([4]; dosage 8.47 μg a.i./bee): 0; Death number after 48 h ([4]; dosage 8.47 μg a.i./bee): 0
Ryanodine [reference compound] |  |  |  |  |  |  |  |  |  |  |  | insecticidal activity, Helicoverpa armigera (Hübner) [1]: 100%; fungicidal activity (growth inhibition rate), PP (Physalospora piricola): 25%; fungicidal activity (growth inhibition rate), GZ (wheat Gibberella zeae; 50 μg/mL): 20%; fungicidal activity (growth inhibition rate), RC (Rhizoctonia cerealis): 50%; fungicidal activity (growth inhibition rate), AS (Alternaria solani): 25%; fungicidal activity (growth inhibition rate), BC (Botrytis cinerea): 25%; fungicidal activity (growth inhibition rate), PI ([2]; 50 μg/mL): 30%; fungicidal activity (growth inhibition rate), CA (Cercospora arachidicola): 10%; fungicidal activity (growth inhibition rate), PS (Pellicularia sasakii): 32%; insecticidal activity, Ostrinia furnacalis (Ostrinia furnacalis): 100%; insecticidal activity, Mythimna separate (Walker) [3]: 100%; fungicidal activity (growth inhibition rate), SS (Sclerotinia sclerotiorum): 25%
CCOC(=O)C[C@@H]1C[C@]2(O)CC(=O)O[C@@]23CC=CC[C@H]13 [Zyj06-128] |  | > 30 | > 70 |  | 25 | 7 | 20 |  |  | 0 |  | inhibition at 50 µg/mL (Physalospora piricola; read-out: fungicidal activity (growth inhibition rate), PP): 8%; inhibition at 50 µg/mL (Cercospora arachidicola): 27%
C=CC[C@@H]1C[C@]2(O)CC(O)O[C@@]23C[C@H]2O[C@H]2C[C@H]13 (stereo partly drawn) [Zyj07-64] | 10 | 8 | > 70 | > 60 | 41 | 17 | > 60 | 5 | 20 | 45 | 73 | Death rate after 48 h (%) ([4]; dosage 10.0 μg a.i./bee): 15.0%; Death number after 24 h ([4]; dosage 10.0 μg a.i./bee): 0; Death number after 48 h ([4]; dosage 10.0 μg a.i./bee): 1 and 2; Death rate after 48 h (%) ([4]; dosage 15.5 μg a.i./bee): 10.0%; Death number after 24 h ([4]; dosage 15.5 μg a.i./bee): 0 and 1; Death number after 48 h ([4]; dosage 15.5 μg a.i./bee): 0 and 2
CCOC(=O)C1C(=O)O[C@]23CC=CC[C@@H]2[C@H](OC)C[C@]13O (stereo partly drawn) [Zyj06-187] | 0 | 8 | 50 | 14 | 34 | 31 | 0 | 0 | 10 | 43 | > 50 | inhibition at 50 µg/mL (Cercospora arachidicola): > 50%; Death rate after 48 h (%) ([4]; dosage 6.08 μg a.i./bee): 0%; Death number after 24 h ([4]; dosage 6.08 μg a.i./bee): 0; Death number after 48 h ([4]; dosage 6.08 μg a.i./bee): 0; Death rate after 48 h (%) ([4]; dosage 10.6 μg a.i./bee): 10.0%; Death number after 24 h ([4]; dosage 10.6 μg a.i./bee): 0; Death number after 48 h ([4]; dosage 10.6 μg a.i./bee): 1
CCOC(=O)C1C(=O)O[C@]23CC=CC[C@@H]2CC[C@]13O (stereo partly drawn) [Zyj07-95] | 10 |  | > 70 | > 60 |  | 29 | 57 | 10 | > 30 | > 50 | > 50 | Death rate after 48 h (%) ([4]; dosage 9.36 μg a.i./bee): 0%; Death number after 24 h ([4]; dosage 9.36 μg a.i./bee): 0; Death number after 48 h ([4]; dosage 9.36 μg a.i./bee): 0; Death rate after 48 h (%) ([4]; dosage 19.9 μg a.i./bee): 0%; Death number after 24 h ([4]; dosage 19.9 μg a.i./bee): 0; Death number after 48 h ([4]; dosage 19.9 μg a.i./bee): 0
